Where a SMILES comes first, the peptide text is derived from it. The star is where a group is joined. Cbz = O=C(OCc1ccccc1)*
Tests used:
HeLa H2B-GFP cells [1] = assay: Chromosome congression analysis; type: cell-based, human
Method: HeLa H2B-GFP cells were plated in 35 mm glass-bottom dishes (MatTek) in DMEM+10% FBS at 20% confluence one day prior to the experiment and synchronized by double thymidine block as described above. Drugs were added as follows to a final volume of 3 ml from 2× concentrated preparation in culture medium. DMSO (0.06%), proTAME (3 and 12 μM) or 10 nM Nocodazole were added 8 h after release from the second block, while MG132 (10 μM) was added at 10 h. H2B-GFP was imaged for 4 hrs every 3 min at 40× magnification as described above.

HeLa cells = assay: Live imaging of HeLa cells expressing Histone 2B-GFP (Examples 1 and 2); type: cell-based, human; details: 3 μM MG132
Excerpt: Cumulative frequency curves of mitotic duration were plotted.
The same experiment in 1B was done with proAAME.
Synchronized HeLa cells were transfected with Mad2/control siRNA followed by drug treatments. Cumulative frequency curves of mitotic duration were plotted.
Asynchronous HeLa cells were transfected with Mad2 or control siRNA.
For comparison, the curves obtained in H2B-GFP fluorescent imaging experiment shown in FIG. 1B were plotted on the same graph.

HeLa H2B-GFP cells [2] = type: cell-based, human; details: double thymidine synchronized, drugs 10 hrs after release; proTAME 3 μM; MG132 concentration not given
Method: To determine whether proTAME treatment can enhance mitotic arrest and cell death induced by taxol or a proteasome inhibitor (MG132), HeLa H2B-GFP cells were co-treated with low doses of the microtubule poison Taxol or the proteasome inhibitor MG132 in combination with a low dose of proTAME.
Unsychronized HeLa H2B-GFP cells were treated with DMSO (control), taxol 10 nM or proTAME 3 μM or a combination of Taxol 10 nM and proTAME 3 μM (FIG. 26). The cells were imaged by FITC fluorescence microscopy to monitor the cell cycle and mitotic events.
To analyze interactions between proTAME and a proteasome inhibitor (FIG. 27), HeLa H2B-GFP cells were synchronized by double thymidine block (2 mM thymidine block for 18 hrs, release in medium for 8 hrs 2 mM thymidine block for 18 hrs), and treated with the drugs 10 hrs after release from the block as the cells just entered mitosis.

HeLa H2B-GFP cells [3] = assay: Live cell imaging of mitotic duration and cell fate; type: cell-based, human
Method: Detailed siRNA transfection and drug treatment schemes are described in supplemental experimental procedures. HeLa H2B-GFP cells were plated in DMEM with 10% FBS at 20% confluence. […] Live cell imaging was performed at 12 minute intervals on a Nikon TE2000E PFS inverted microscope fitted with an incubation chamber maintained at 37° C. and supplied with 5% CO2. Cell division was tracked by manual inspection of movies, and mitotic duration was measured as the time between the first frame of chromosome condensation and the frame of chromosome segregation (anaphase), decondensation (mitotic exit without anaphase) or cell death (chromosomes shrinking to a small bright dot).
The imaging plate was mounted onto a motorized stage (Prior ProScan II) on a Nikon TE2000E PFS inverted microscope fitted with an incubation chamber maintained at 37° C. and supplied with 5% CO2. […] TIFF files of each image were exported from Elements and used to build stacks and Quicktime movies with Metamorph imaging software (Molecular Devices). For manual analysis, mitotic duration is counted as the time between the first frame of chromosome condensation and the frame of chromosome segregation (anaphase) or decondensation (mitotic exit in the presence of nocodazole) or cell death (chromosomes shrinking to a small bright dot).
HeLa H2B-GFP cells were plated in a 24-well plate in DMEM 10% FBS at 20% confluence one day prior to experiment and synchronized by double thymidine block as described above. […] Live cell imaging was set up as described above.
HeLa H2B-GFP cells were plated in a 24-well plate in DMEM+10% FBS at 20% confluence one day prior to the experiment and synchronized by double thymidine block as described above. The cells were released from the first thymidine block into 200 μl OptiMem without FBS. Transfection was performed immediately after the first thymidine release. […] The two mixtures were left at room temperature for 5 min before being mixed together and incubated for additional 20 min and then added to the cells to a final volume of 250 μl. 4 h after transfection, 250 μl of DMEM+20% FBS were added to cells.
HeLa H2B-GFP cells were plated in glass-bottom 24-well plates at 20% confluence one day prior to the experiment and synchronized by double thymidine block as described above. […] Cells were treated with 100 nM Hesperadin or DMSO 8 h after release from the second thymidine block and live cell imaging was set up as described above.
HeLa H2B-GFP cells were plated in a 24-well plate in DMEM+10% FBS at 20% confluence one day prior to experiment and synchronized by double thymidine block as synchronized above. […] Live cell imaging was set up as described above.
HeLa H2B-GFP cells were plated in a 24-well plate in DMEM+10% FBS at 20% confluence one day prior to experiment and synchronized by double thymidine block as described above. […] Untreated cells were used as the control. Live cell imaging was set up as described above. […] Alternatively, at 10 h after release from the second block, 10 μM MG132 with or without 25 μg/ml cycloheximide was added to the cells. […] Live cell imaging was set up as described above.
HeLa H2B-GFP cells were plated in a 24-well plate in DMEM+10% FBS at 20% confluence one day prior to experiment and synchronized by double thymidine block as described above. Mad2 siRNA transfection was performed as described above. At 10 h after release from the second block, 10 μM MG132 with or without 25 μg/ml cycloheximide was added to the cells. Live cell imaging was set up as described above. Manual analysis was focused only on cells that entered mitosis after MG132 addition.

cyclin A2-GFP = assay: Exogenous cyclin-GFP expression, live-cell imaging and quantitation (cyclin A2-GFP); type: cell-based, human; details: HeLa H2B-RFP; 20 μM proTAME or proAAME, 150 nM nocodazole
Method: (§1) HeLa H2B-RFP cells were transduced with cyclin B1-GFP or cyclin A2-GFP adenovirus for 40 h. Phenol Red-Free DMEM (Mediatech) supplemented with 10% FBS and 1:100 Penicillin-Streptomycin-Glutamine (Mediatech) was used as imaging medium. 20 μM proTAME, […] or 150 nM nocodazole was added 45 min prior to the start of imaging. Live cell imaging was set up as described above except that the cells were plated in an 8-well chambered coverglasses (NUNC Lab-tek 155411). Four positions per treatment group were imaged with DIC transmitted light, red fluorescence, and green fluorescence (Semrock GFP/HcRed “Pinkel” filter set) at 12 min intervals for 24 h. Stacks of red and green fluorescence were merged, saved as AVI video files and analyzed using ImageJ. For quantitation, the first GFP-positive cells that undergo mitosis in three separate movies were chosen, giving at least 30 cells quantitated for each treatment group. Mean intensity values for the green channel were collected for a cytoplasmic region of a cell upon mitotic entry, mitotic exit, or after 1 h of mitotic arrest. At the same time points, background mean green intensity was determined and individually subtracted from the cytoplasmic mean intensity. This background corrected mean intensity value was then used to determine the percentage of the original GFP signal remaining at the completion of division (for the control cells) or after 1 h of mitotic arrest (for the nocodazole and proTAME treated cells). The average values for all quantitated cells were plotted with the error bars representing standard error of the mean.

hTERT-RPE1 H2B-GFP cells = assay: Live cell imaging of mitotic duration in hTERT-RPE1 cells; type: cell-based
Method: FIG. 18A is a graph and table showing that proTAME induces a mitotic delay in hTERT-RPE1 H2B-GFP cells. Asynchronous hTERT-RPE1 H2B-GFP cells were treated with 0.06% DMSO, 6 μM proTAME or 12 μM proAAME. Cells were imaged at 12 min interval. Cumulative frequency curves of mitotic duration and cell fate distribution are shown.
The imaging plate was mounted onto a motorized stage (Prior ProScan II) on a Nikon TE2000E PFS inverted microscope fitted with an incubation chamber maintained at 37° C. and supplied with 5% CO2. A 20× Plan Apo 0.75 NA or 40× Plan Fluor 0.75 NA objective lens was used as indicated and images were collected with 2×2 binning DIC or GFP fluorescent images were taken every 12 min (unless otherwise specified) for 36 h with a Hamamatsu ORCA cooled CCD camera and Nikon Elements Software. TIFF files of each image were exported from Elements and used to build stacks and Quicktime movies with Metamorph imaging software (Molecular Devices). For manual analysis, mitotic duration is counted as the time between the first frame of chromosome condensation and the frame of chromosome segregation (anaphase) or decondensation (mitotic exit in the presence of nocodazole) or cell death (chromosomes shrinking to a small bright dot).

APC = target: T1, APC (Homo sapiens, UniProt P30260); assay: Cdc20/Cdh1 binding assay in HeLa cells; type: cell-based; details: 12 μM, HeLa released from nocodazole block
T1 construct: endogenous in cells; host or cells: HeLa cells (synchronised; in some experiments also Mad2/BubR1 siRNA and cyclin B1Δ107 adenovirus)
T1 sequence (P30260 whole entry): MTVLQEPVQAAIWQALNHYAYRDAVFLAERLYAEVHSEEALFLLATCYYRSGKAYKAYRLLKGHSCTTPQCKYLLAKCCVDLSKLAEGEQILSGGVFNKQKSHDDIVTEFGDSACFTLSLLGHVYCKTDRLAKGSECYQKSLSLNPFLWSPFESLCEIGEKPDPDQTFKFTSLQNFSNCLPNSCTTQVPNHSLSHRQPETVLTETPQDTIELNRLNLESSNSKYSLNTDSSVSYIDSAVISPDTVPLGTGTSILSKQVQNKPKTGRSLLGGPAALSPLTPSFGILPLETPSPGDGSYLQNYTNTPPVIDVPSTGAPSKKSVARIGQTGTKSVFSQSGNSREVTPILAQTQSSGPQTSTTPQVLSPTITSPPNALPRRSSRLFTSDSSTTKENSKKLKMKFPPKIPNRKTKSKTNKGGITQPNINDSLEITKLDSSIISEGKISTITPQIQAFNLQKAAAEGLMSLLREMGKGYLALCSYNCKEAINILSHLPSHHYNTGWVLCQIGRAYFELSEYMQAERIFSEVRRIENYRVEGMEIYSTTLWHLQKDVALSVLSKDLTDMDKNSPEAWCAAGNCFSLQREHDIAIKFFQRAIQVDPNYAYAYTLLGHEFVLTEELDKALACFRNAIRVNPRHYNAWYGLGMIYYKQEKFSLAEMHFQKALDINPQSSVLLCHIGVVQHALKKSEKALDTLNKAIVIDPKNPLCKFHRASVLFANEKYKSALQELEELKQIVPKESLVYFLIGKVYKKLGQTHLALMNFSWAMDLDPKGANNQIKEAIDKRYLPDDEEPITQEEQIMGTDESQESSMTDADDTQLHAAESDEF
Method: HeLa cells in DMEM 10% FBS were plated in T25 flasks at 20% confluence one day prior to the experiment. They were then synchronized by a double thymidine block (18 h for the first block, 8 h release and another 18 h for the second block, thymidine concentration: 2 mM). For analysis of Cdh1 binding, cells were released into […] from the second thymidine block for 13 h and then washed into fresh medium. Six h later, cells were treated with 12 μM proTAME or […] or 0.06% DMSO for 2 h and then collected by trypin digrestion. For analysis of Cdc20 binding, cells were transfected with indicated siRNAs during the first release from thymidine block after two washes with DPBS (CellGro 21-030-CV) and addition of 6.3 ml OptiMEM. A volume (79 μl) of 20 μl Control siRNA#3 or a 1:1 mix of 20 μl MAD2 siRNA and BubR1 siRNA (Dharmacon D-004101-01, 5′-[…]-3′ (SEQ ID NO: 11)) was mixed in 1381 μl OptiMEM in a tube, 23.7 μl OligoFectamine were mixed with 94.1 μl OptiMEM in a second tube. After 5 min incubation at RT, the tubes contents were mixed and siRNA-reagent complexes were allowed to form for 20 min at RT. The transfection mixes were added to cells in OptiMEM and FBS was added to 10% after 5 h transfection. Cyclin B1-4107 expressing adenovirus (1:100) was added at the start of the second thymidine block and kept in the medium for all subsequent steps. […]

cyclin B1-GFP = assay: Exogenous cyclin-GFP expression, live-cell imaging and quantitation (cyclin B1-GFP); type: cell-based, human; details: HeLa H2B-RFP; 20 μM proTAME or proAAME, 150 nM nocodazole
Method: as §1

[4] = proTAME 12 μM, MG132 10 μM, Nocodazole 10 nM
[5] = asynchronous hTERT-RPE1 H2B-GFP, proAAME 12 μM, proTAME 6 μM
[6] = 12 μM, double thymidine synchronized, added 8 h after release

| SMILES | Delay in chromosome congression (in words) (HeLa H2B-GFP cells [1]; 3 μM proTAME or 10 μM MG132) | Average chromosome congression time (prophase to full metaphase congression) (HeLa H2B-GFP cells [1]; [4]) | Median chromosome congression time (prophase to full metaphase congression) (HeLa H2B-GFP cells [1]; [4]) | Mad2-dependence of mitotic arrest (HeLa cells) | Median mitotic delay / arrest (HeLa H2B-GFP cells [2]) | Cells that exited mitosis during the 30 h experiment (HeLa H2B-GFP cells [3]; 3 μM MG132, control cells) | Time a normal-appearing metaphase plate is maintained (HeLa H2B-GFP cells [3]; MG132 alone) | Average cyclin A2-GFP intensity remaining at 60 min vs onset of mitosis (cyclin A2-GFP) | Median cyclin A2-GFP intensity remaining at 60 min vs onset of mitosis (cyclin A2-GFP) | Average mitotic duration (hTERT-RPE1 H2B-GFP cells; [5]) | Median mitotic duration (hTERT-RPE1 H2B-GFP cells; [5]) | Median mitotic duration (hTERT-RPE1 H2B-GFP cells; proAAME-treated hTERT-RPE1 cells) | Cdh1 association with the APC in G1 cells (APC) | Mitotic phenotype (HeLa H2B-GFP cells [3]; 12 μM) | Average mitotic duration (HeLa H2B-GFP cells [3]; [6]) | Median mitotic duration (HeLa H2B-GFP cells [3]; [6]) | Average cyclin B1-GFP intensity remaining at 60 min vs onset of mitosis (cyclin B1-GFP) | Median cyclin B1-GFP intensity remaining at 60 min vs onset of mitosis (cyclin B1-GFP) |
| --- | --- | --- | --- | --- | --- | --- | --- | --- | --- | --- | --- | --- | --- | --- | --- | --- | --- | --- |
| CC(C)C[C@@H](C=O)NC(=O)[C@H](CC(C)C)NC(=O)[C@H](CC(C)C)NC(=O)OCc1ccccc1 [MG132, reference compound] (Cbz-Leu-Leu-Leu-aldehyde) | no delay in chromosome congression | 21.6 min | 21 min | partially dependent on Mad2 | 276 min | 10% | over 5 h | – | – | – | – | – | – | – | – | – | – | – |
| COC(=O)[C@H](CC(C)N=C(NC(=O)OCOC(=O)Cc1ccccc1)NC(=O)OCOC(=O)Cc1ccccc1)NC(C)=O (stereo partly drawn) [proAAME, methyl(S)-2-(acetyl)amino-4-[[bis[[[[(phenylacetyl)oxy]methoxy]carbonyl]amino]methylene]amino]pentanoate] | – | – | – | – | – | – | – | 0.08 fraction remaining | 0.06 fraction remaining | 32.1 min | 36 min | 24 min | did not | no effect | 100.5 min | 84 min | 0.15 fraction remaining | 0.15 fraction remaining |

Reference: patent US20130230458A1, “Cell Permeable Inhibitors of Anaphase Promoting Complex” (PRESIDENT AND FELLOWS OF HARVARD COLLEGE, priority 2010, published 2013)
